From PubChem BioAssay AID1195 (EPA DSSTox, 2008)

Tested on: human maximum recommended daily dose, FDA database
Assay: DSSTox (FDAMDD) FDA Maximum (Recommended) Daily Dose Database
Conditions: stronger effect = lower value
Method in brief: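 MRDD values come from clinical trials with daily oral dosing, usually for 3–12 months, for the average adult, in mg/day converted to mg/kg-bw/day assuming 60 kg. Antineoplastic mg/m2 doses are divided by 37. Activity score maps log10(1/MRDD mmol) onto 1–100.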

[1] = TherapeuticCategory: antibacterial
[2] = TherapeuticCategory: anti inflammatory
[3] = TherapeuticCategory: antihypertensive
[4] = TherapeuticCategory: antidepressant

**Q.** For NCCc1ccn[nH]1, which maximum recommended daily dose (mmol/kg-bw/day) (TherapeuticCategory: diagnostic aid) is on record?
**A.** 0.0045

**Q.** Which maximum recommended daily dose (mmol/kg-bw/day) [1] does the source give for CO[C@H]1C[C@H](O[C@H]2[C@H](C)[C@@H](O[C@@H]3O[C@H](C)C[C@H](N(C)C)[C@H]3O)[C@@H](C)C[C@]3(CO3)C(=O)[C@H](C)[C@@H](O)[C@@H](C)[C@@H](C)OC(=O)[C@@H]2C)O[C@@H](C)[C@@H]1O here?
**A.** 0.0484

**Q.** O=C(O)CCC(=O)c1ccc(-c2ccccc2)cc1 was tested. Which maximum recommended daily dose (mmol/kg-bw/day) [2] did it give?
**A.** 0.059

**Q.** With CCCCCCC(C)(C)c1cc(O)c2c(c1)OC(C)(C)[C@@H]1CCC(=O)C[C@@H]21 as the compound, how does the maximum recommended daily dose (mmol/kg-bw/day) (TherapeuticCategory: antiemetic) read?
**A.** 0.000268

**Q.** O=C(c1ccccc1)c1ccc2n1CCC2C(=O)O (stereo not drawn) was tested. Which maximum recommended daily dose (mmol/kg-bw/day) (TherapeuticCategory: analgesic, anti inflammatory) did it give?
**A.** 0.00979

**Q.** For CC1C2Cc3ccc(O)cc3C1(C)CCN2CC1CC1 (stereo not drawn), which maximum recommended daily dose (mmol/kg-bw/day) (TherapeuticCategory: narcotic antagonist) is on record?
**A.** 0.000246

**Q.** With Cc1ccc(Cl)c(OCC(O)CNC(C)(C)C)c1 (stereo not drawn) as the compound, how does the maximum recommended daily dose (mmol/kg-bw/day) (TherapeuticCategory: antihypertensive, antianginal, antiarrhythmic, antiglaucomic) read?
**A.** 0.0245

**Q.** O=C1Cc2cc(CCN3CCN(c4nsc5ccccc45)CC3)c(Cl)cc2N1 was tested. Which maximum recommended daily dose (mmol/kg-bw/day) (TherapeuticCategory: antipsychotic, dopamine receptor antagonist, seratonin receptor antagonist) did it give?
**A.** 0.00647

**Q.** Which maximum recommended daily dose (mmol/kg-bw/day) (TherapeuticCategory: antiviral, antineoplastic) does the source give for O=c1[nH]c(=O)n([C@H]2C[C@H](O)[C@@H](CO)O2)cc1F here?
**A.** 0.00244

**Q.** Which maximum recommended daily dose (mmol/kg-bw/day) (TherapeuticCategory: anxiolytic) does the source give for CCCC(C)(COC(N)=O)COC(N)=O here?
**A.** 0.183

**Q.** With CN=C(NC)NCc1ccccc1 as the compound, how does the maximum recommended daily dose (mmol/kg-bw/day) [3] read?
**A.** 0.0188

**Q.** How did the maximum recommended daily dose (mmol/kg-bw/day) [2] turn out when CC(C)Cc1ccc(C(C)C(=O)OCc2ccccn2)cc1 (stereo not drawn) was run?
**A.** 0.135

**Q.** How did the maximum recommended daily dose (mmol/kg-bw/day) (TherapeuticCategory: anorexic) turn out when CCNC(C)Cc1cccc(C(F)(F)F)c1 (stereo not drawn) was run?
**A.** 0.00865

**Q.** Which maximum recommended daily dose (mmol/kg-bw/day) (TherapeuticCategory: glucocorticoid) does the source give for C[C@H]1C[C@@H]2[C@H]([C@@H](O)C[C@@]3(C)[C@H]2CC[C@]3(O)C(=O)COC(=O)CCCCCCC(=O)N(C)CCS(=O)(=O)O)[C@@]2(C)C=CC(=O)C=C12 here?
**A.** 0.0061

**Q.** Which maximum recommended daily dose (mmol/kg-bw/day) (TherapeuticCategory: cholinergic (acetyl-choline) receptor blockers) does the source give for Cc1ccc(O)c([C@H](CCN(C(C)C)C(C)C)c2ccccc2)c1 here?
**A.** 0.0246

**Q.** How did the maximum recommended daily dose (mmol/kg-bw/day) (TherapeuticCategory: none) turn out when CCC(C)CON=O (stereo not drawn) was run?
**A.** 0.0427

**Q.** For NC[C@@H]1CC[C@@H](N)[C@@H](O[C@H]2[C@H](O)[C@@H](O[C@H]3O[C@H](CO)[C@@H](O)[C@H](N)[C@H]3O)[C@H](N)C[C@@H]2N)O1, which maximum recommended daily dose (mmol/kg-bw/day) [1] is on record?
**A.** 0.00664

**Q.** How did the maximum recommended daily dose (mmol/kg-bw/day) (TherapeuticCategory: antiviral) turn out when O=C(O)P(=O)(O)O was run?
**A.** 0.625

**Q.** For CCCCCCCCCCC[C@@H](C[C@@H]1OC(=O)[C@H]1CCCCCC)OC(=O)C(CC(C)C)NC=O (stereo partly drawn), which maximum recommended daily dose (mmol/kg-bw/day) (TherapeuticCategory: antiobesity) is on record?
**A.** 0.0121

**Q.** With CCn1nc(C)c2c1C(c1ccccc1)=NCC(=O)N2 as the compound, how does the maximum recommended daily dose (mmol/kg-bw/day) (TherapeuticCategory: antianxiolytic) read?
**A.** 0.00496

**Q.** CC(=O)[C@@]1(O)CC[C@H]2[C@@H]3C=C(Cl)C4=CC(=O)[C@@H]5C[C@@H]5[C@]4(C)[C@H]3CC[C@@]21C was tested. Which maximum recommended daily dose (mmol/kg-bw/day) (TherapeuticCategory: antiandrogen) did it give?
**A.** 0.0133

**Q.** CNS(=O)(=O)Cc1ccc2[nH]cc(CCN(C)C)c2c1 was tested. Which maximum recommended daily dose (mmol/kg-bw/day) (TherapeuticCategory: antimigraine) did it give?
**A.** 0.000677

**Q.** With CN1CCN2c3ccccc3Cc3ccccc3C2C1 (stereo not drawn) as the compound, how does the maximum recommended daily dose (mmol/kg-bw/day) [4] read?
**A.** 0.00567

**Q.** With Clc1ccccc1CN1CCc2sccc2C1 as the compound, how does the maximum recommended daily dose (mmol/kg-bw/day) (TherapeuticCategory: platelet aggregation inhibitor) read?
**A.** 0.0158

**Q.** With Cc1ccc(N(CC2=NCCN2)c2cccc(O)c2)cc1 as the compound, how does the maximum recommended daily dose (mmol/kg-bw/day) (TherapeuticCategory: antihypertensive, diagnostic aid) read?
**A.** 0.000594

**Q.** With COc1cc2nc(N3CCN(C(=O)C4COc5ccccc5O4)CC3)nc(N)c2cc1OC (stereo not drawn) as the compound, how does the maximum recommended daily dose (mmol/kg-bw/day) [3] read?
**A.** 0.000591

**Q.** For Cc1[nH]c(=O)c(C#N)cc1-c1ccncc1, which maximum recommended daily dose (mmol/kg-bw/day) (TherapeuticCategory: cardiotonic) is on record?
**A.** 0.000237

**Q.** Which maximum recommended daily dose (mmol/kg-bw/day) (TherapeuticCategory: oxytocic, abortifacient) does the source give for CCCCC[C@H](O)/C=C/[C@@H]1[C@@H](C/C=C\CCCC(=O)O)[C@@H](O)C[C@H]1O here?
**A.** 3.53e-05

**Q.** CC[N+](C)(C)c1cccc(O)c1 was tested. Which maximum recommended daily dose (mmol/kg-bw/day) (TherapeuticCategory: cholinergic) did it give?
**A.** 0.00347

**Q.** For Clc1ccc(C/C(=C\CN2CCCC2)c2ccccc2)cc1, which maximum recommended daily dose (mmol/kg-bw/day) (TherapeuticCategory: antihistaminic) is on record?
**A.** 0.00481

**Q.** How did the maximum recommended daily dose (mmol/kg-bw/day) (TherapeuticCategory: alpha 1A androceptor antagonist) turn out when CCOc1ccccc1OCCN[C@H](C)Cc1ccc(OC)c(S(N)(=O)=O)c1 was run?
**A.** 3.26e-05

**Q.** Cn1c(=O)c2c(ncn2CCCNCC(O)c2cc(O)cc(O)c2)n(C)c1=O (stereo not drawn) was tested. Which maximum recommended daily dose (mmol/kg-bw/day) (TherapeuticCategory: bronchodilator) did it give?
**A.** 0.00257

**Q.** Which maximum recommended daily dose (mmol/kg-bw/day) [1] does the source give for C[C@]1(Cn2ccnn2)[C@H](C(=O)O)N2C(=O)C[C@H]2S1(=O)=O here?
**A.** 0.0833

**Q.** N[C@@H]1C[C@H]1c1ccccc1 was tested. Which maximum recommended daily dose (mmol/kg-bw/day) [4] did it give?
**A.** 0.00751

**Q.** For CC(O)(P(=O)(O)O)P(=O)(O)O, which maximum recommended daily dose (mmol/kg-bw/day) (TherapeuticCategory: calcium regulator) is on record?
**A.** 0.0971

**Q.** Which maximum recommended daily dose (mmol/kg-bw/day) (TherapeuticCategory: antipsychotic) does the source give for CC(=O)OCCN1CCN(CCCN2c3ccccc3Sc3ccc(Cl)cc32)CC1 here?
**A.** 0.00336

**Q.** How did the maximum recommended daily dose (mmol/kg-bw/day) (TherapeuticCategory: expectorant) turn out when OCC1COC(CCI)O1 (stereo not drawn) was run?
**A.** 0.0155

**Q.** With Nc1ccc(C(=O)O)c(O)c1 as the compound, how does the maximum recommended daily dose (mmol/kg-bw/day) [1] read?
**A.** 1.31
